Source: PubChem BioAssay AID248 (DTP/NCI, 2004)
Where “and” joins values, the source holds several entries; their conditions need not be identical. Equal entries are not always repeated. Inconclusive results and toxic doses are left out. No stated cut-off is given here; in the data, active means T/C of 150% or more; inactive means T/C below 125%. Square brackets hold non-standard residues; d marks the D form. Peptide text beside a SMILES is read from it. * marks the point of attachment. ξ: configuration not given here. Cbz = O=C(OCc1ccccc1)*; ξNle = CCCCC(N)C(=O)O

Test system: L1210 leukemia ip in BDF1 mice, survival T/C
Assay: NCI In Vivo Anticancer Drug Screen. Data for tumor model L1210 Leukemia (intraperitoneal) in B6D2F1 (BDF1) mice
Conditions: endpoint: mean survival time, higher = longer survival
Procedure, shortened: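 Read-out is survival time, reported as the treated-group measurement over the vehicle-control measurement.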

[1] = dose: 100.0 mg/kg/injection, schedule: Q01DX001 (ip), vehicle: saline
[2] = dose: 200.0 mg/kg/injection, schedule: Q01DX001 (ip), vehicle: saline
[3] = dose: 400.0 mg/kg/injection, schedule: Q01DX001 (ip), vehicle: saline
[4] = dose: 100.0 mg/kg/injection, schedule: Q04DX003 (ip), vehicle: saline
[5] = dose: 200.0 mg/kg/injection, schedule: Q04DX003 (ip), vehicle: saline
[6] = dose: 12.5 mg/kg/injection, schedule: Q04DX002 (ip), vehicle: saline
[7] = dose: 25.0 mg/kg/injection, schedule: Q04DX002 (ip), vehicle: saline
[8] = dose: 50.0 mg/kg/injection, schedule: Q01DX009 (ip), vehicle: saline
[9] = dose: 100.0 mg/kg/injection, schedule: Q01DX009 (ip), vehicle: saline
[10] = dose: 200.0 mg/kg/injection, schedule: Q01DX009 (ip), vehicle: saline
[11] = dose: 100.0 mg/kg/injection, schedule: Q04DX002 (ip), vehicle: Klucel (hydroxypropylcellulose) (HPC)
[12] = dose: 200.0 mg/kg/injection, schedule: Q04DX002 (ip), vehicle: Klucel (hydroxypropylcellulose) (HPC)
[13] = dose: 400.0 mg/kg/injection, schedule: Q04DX002 (ip), vehicle: Klucel (hydroxypropylcellulose) (HPC)
[14] = dose: 100.0 mg/kg/injection, schedule: Q04DX003 (ip), vehicle: Klucel (hydroxypropylcellulose) (HPC)
[15] = dose: 200.0 mg/kg/injection, schedule: Q04DX003 (ip), vehicle: Klucel (hydroxypropylcellulose) (HPC)
[16] = dose: 400.0 mg/kg/injection, schedule: Q04DX003 (ip), vehicle: Klucel (hydroxypropylcellulose) (HPC)

Measured: T/C

Nc1ncnc2c1ncn2C1COC(CO)C1O (stereo unspecified)
inactive: [1] 103 % of control | [2] 107 % of control | [3] 107 % of control

CC(O)(C(=O)O)c1ccccc1 (stereo unspecified) (tested in a mixture with another compound)
inactive: dose: 100.0 mg/kg/injection, schedule: Q01DX009 (ip), vehicle: other 94 % of control | [4] 92 % of control | dose: 200.0 mg/kg/injection, schedule: Q01DX009 (ip), vehicle: other 98 % of control | [5] 103 % of control | dose: 400.0 mg/kg/injection, schedule: Q01DX009 (ip), vehicle: other 102 % of control | dose: 400.0 mg/kg/injection, schedule: Q04DX003 (ip), vehicle: saline 89 % of control

CC(O)C[As](=O)(O)c1ccccc1 (stereo unspecified)
inactive: [6] 103 % of control | [7] 100 % of control

CC(C)(C)SCCC(=O)NC1CCCCC1
inactive: [8] 90 % of control | [9] 95 % of control | [4] 106 % of control | [10] 93 % of control | [5] 101 % of control

O=C1C(c2ccccc2)=Nc2ccccc21
inactive: dose: 100.0 mg/kg/injection, schedule: Q04DX002 (ip), vehicle: saline with Tween-80 88 % of control | dose: 200.0 mg/kg/injection, schedule: Q04DX002 (ip), vehicle: saline with Tween-80 88 % of control | dose: 400.0 mg/kg/injection, schedule: Q04DX002 (ip), vehicle: saline with Tween-80 90 % of control

CCOC(=O)C(C)S(=O)(=O)/C(=C\N1CCCCC1)CC (stereo unspecified)
inactive: [11] 109 % of control | dose: 100.0 mg/kg/injection, schedule: Q04DX003 (ip), vehicle: other 104 % of control | [12] 98 % of control | dose: 200.0 mg/kg/injection, schedule: Q04DX003 (ip), vehicle: other 96 % of control | [13] 112 % of control | dose: 400.0 mg/kg/injection, schedule: Q04DX003 (ip), vehicle: other 102 % of control

CCc1ccccc1N/N=C(\Cl)C(C)=O
inactive: dose: 6.25 mg/kg/injection, schedule: Q01DX009 (ip), vehicle: saline 106 % of control | dose: 12.5 mg/kg/injection, schedule: Q01DX009 (ip), vehicle: saline 106 % of control | dose: 25.0 mg/kg/injection, schedule: Q01DX009 (ip), vehicle: saline 95 % of control

Cc1cc(SCc2ccccc2)cc(C)[o+]1
inactive: [1] 98 % of control | [2] 98 % of control | [3] 107 % of control

ClCCN(CCCl)c1ccc(C[n+]2ccc3ccccc3c2)cc1
inactive: dose: 8.0 mg/kg/injection, schedule: Q01DX015 (ip), vehicle: carboxymethylcellulose (CMC) 109 % of control | dose: 16.0 mg/kg/injection, schedule: Q01DX015 (ip), vehicle: carboxymethylcellulose (CMC) 113 % of control | dose: 32.0 mg/kg/injection, schedule: Q01DX015 (ip), vehicle: carboxymethylcellulose (CMC) 106 % of control

O=C(/C(=C/c1ccc(Cl)cc1)c1ccccc1)c1ccc(O)cc1
inactive: [2] 92 % of control | [3] 86 % of control

C/C(=N/N=C(N)N)c1ccc(/C(C)=N/N=C(N)N)cc1
inactive: dose: 3.75 mg/kg/injection, schedule: Q01DX Z (ip), vehicle: saline 95 % of control | dose: 7.5 mg/kg/injection, schedule: Q01DX Z (ip), vehicle: carboxymethylcellulose (CMC) 100 % of control | dose: 7.5 mg/kg/injection, schedule: Q01DX Z (ip), vehicle: saline 101 % of control | dose: 15.0 mg/kg/injection, schedule: Q01DX Z (ip), vehicle: carboxymethylcellulose (CMC) 107 % of control | dose: 15.0 mg/kg/injection, schedule: Q01DX Z (ip), vehicle: saline 110 % of control and 112 % of control | dose: 30.0 mg/kg/injection, schedule: Q01DX Z (ip), vehicle: carboxymethylcellulose (CMC) 117 % of control | dose: 30.0 mg/kg/injection, schedule: Q01DX Z (ip), vehicle: saline 112 % of control | dose: 480.0 mg/kg/injection, schedule: Q01DX009 (oral), vehicle: saline 93 % of control | dose: 960.0 mg/kg/injection, schedule: Q01DX009 (oral), vehicle: saline 93 % of control

ClC(c1ccccc1)c1ccc(Br)cc1 (stereo unspecified)
inactive: [14] 108 % of control | [15] 101 % of control | [16] 90 % of control

CCCCC(NC(=O)OCc1ccccc1)C(=O)NCC(=O)OCC (stereo unspecified) (Cbz-[ξNle]-Gly-OEt)
inactive: dose: 50.0 mg/kg/injection, schedule: Q01DX009 (ip), vehicle: saline with Tween-80 97 % of control | dose: 100.0 mg/kg/injection, schedule: Q01DX009 (ip), vehicle: saline with Tween-80 97 % of control | dose: 200.0 mg/kg/injection, schedule: Q01DX009 (ip), vehicle: saline with Tween-80 104 % of control

O=CC(O)C(O)C(O)C(O)CO (stereo unspecified) (tested in a mixture with another compound)
inactive: dose: 6.25 mg/kg/injection, schedule: Q04DX002 (ip), vehicle: saline 95 % of control | [6] 100 % of control | [7] 103 % of control and 91 % of control | dose: 75.0 mg/kg/injection, schedule: Q04DX002 (ip), vehicle: saline 95 % of control | dose: 100.0 mg/kg/injection, schedule: Q04DX002 (ip), vehicle: saline 103 % of control | dose: 150.0 mg/kg/injection, schedule: Q04DX002 (ip), vehicle: saline 95 % of control | dose: 200.0 mg/kg/injection, schedule: Q04DX002 (ip), vehicle: saline 99 % of control | dose: 300.0 mg/kg/injection, schedule: Q04DX002 (ip), vehicle: saline 106 % of control | dose: 400.0 mg/kg/injection, schedule: Q04DX002 (ip), vehicle: saline 102 % of control

CC1(O)OC(n2c(Br)nc3c(N)ncnc32)C(O)C1O (stereo unspecified)
inactive: dose: 100.0 mg/kg/injection, schedule: Q01DX001 (ip), vehicle: carboxymethylcellulose (CMC) 103 % of control | dose: 200.0 mg/kg/injection, schedule: Q01DX001 (ip), vehicle: carboxymethylcellulose (CMC) 101 % of control | dose: 400.0 mg/kg/injection, schedule: Q01DX001 (ip), vehicle: carboxymethylcellulose (CMC) 95 % of control

NC(=Nc1ccccc1)SCc1ccc([N+](=O)[O-])cc1
inactive: dose: 50.0 mg/kg/injection, schedule: Q01DX009 (ip), vehicle: Klucel (hydroxypropylcellulose) (HPC) 108 % of control | dose: 100.0 mg/kg/injection, schedule: Q01DX005 (ip), vehicle: Klucel (hydroxypropylcellulose) (HPC) 97 % of control | dose: 100.0 mg/kg/injection, schedule: Q01DX009 (ip), vehicle: Klucel (hydroxypropylcellulose) (HPC) 104 % of control | [11] 104 % of control | dose: 200.0 mg/kg/injection, schedule: Q01DX005 (ip), vehicle: Klucel (hydroxypropylcellulose) (HPC) 92 % of control | [12] 112 % of control | [13] 89 % of control

Cc1ccc(C)c(CCCCS(N)(=O)=O)c1
inactive: [14] 100 % of control | [15] 104 % of control | [16] 100 % of control

Cc1cn(C2CC(CO)CC2O)c(=O)[nH]c1=O (stereo unspecified)
inactive: [8] 104 % of control | [9] 107 % of control | [10] 107 % of control
